What follows are molecules tested on Plasmodium falciparum (assay: GSK_TCMDC: Inhibition of Plasmodium falciparum 3D7 in whole erythrocytes, using parasite LDH activity as an index of growth.). Conditions: Plasmodium falciparum, 3D7.
Format: functional, organism-based
With O=C(N/C(=C/c1cccc([N+](=O)[O-])c1)c1nc2ccccc2[nH]1)c1cccc(Br)c1 the XC50 was 616 nM. In the case of CC(C)CCN(Cc1cncn1Cc1cccc(Cl)c1)C(=O)c1cncc(-c2ccccc2)c1, the XC50 is reported as 762 nM. Molecule CCOC(=O)c1cc(C(=O)NCCCCN2CCC(c3ccc(CC)cc3OCC)CC2)ccc1-c1ccc(C(F)(F)F)cc1 has an XC50 of 615 nM. For NC(=O)c1cccc(CN2Cc3ccccc3OC3(CCN(Cc4c[nH]c5cnccc45)CC3)C2)c1, the XC50 was 1060 nM. For COc1ccc2ncc(F)c(CCN3CC(O)C(CNCc4ccc5c(c4)OCCO5)C3)c2n1 (centres undefined), the XC50 was 927 nM. Molecule O=C(/C=C/c1ccc(Cl)c(Cl)c1)N1CCC(CN2CCC(c3c(-c4ccccc4)[nH]c4ccccc34)CC2)CC1 has an XC50 of 335 nM. With CCc1ccc(O)c(-c2cc(C(=O)Nc3ccc(OC)c(Cl)c3)[nH]n2)c1 the XC50 was 870 nM. Cc1ccc(NC(=O)NC2CCN(CCCCCNC(=O)/C=C/c3ccc(Cl)c(Cl)c3)CC2)cc1 gave an XC50 of 694 nM. COc1cccc(COCC(O)CN(CCc2ccccn2)C(=O)c2ccccc2F)c1 (centres undefined) gave an XC50 of 825 nM. O=C(NCCN1Cc2ccccc2C1=O)c1ccc(Oc2ccc(C(=O)NCCN3Cc4ccccc4C3=O)cc2)cc1 gave an XC50 of 361 nM. CCN(Cc1ccc(-c2ccc(C(F)(F)F)cc2)cc1)C(=O)Cn1c(SCc2cccc(F)c2F)cc(=O)c2cc(CN3CCCCC3)ccc21 showed an XC50 of 801 nM. O=C(N[C@@H](Cc1ccccc1)[C@H](O)CNC1CCc2ccccc2C1)c1cc(C2CCCC2)cc(N2CCCC2=O)c1 (some centres undefined) gave an XC50 of 161 nM. Molecule CCCCNCc1ccc(-c2nc(CN(C(=O)Nc3cc([N+](=O)[O-])ccc3F)C3Cc4ccccc4C3)cs2)cc1 has an XC50 of 1100 nM. For Cc1nnsc1C(=O)Nc1ccc(-c2ccc(-c3nc4ccccc4[nH]3)s2)cc1, the XC50 was 825 nM. For Cc1nc(C)c(CC(=O)Nc2ccc(-c3ccc(-c4nc5cc(C(F)(F)F)ccc5[nH]4)s3)cc2)s1, the XC50 was 1030 nM. N#Cc1ccc(CCNc2nccc(-c3cccc(CN4CCNCC4)c3)n2)cc1 gave an XC50 of 1250 nM. Work on CCC(c1ccccc1)c1nn2c(-c3cccs3)nnc2s1 (centres undefined) yielded an XC50 of 167 nM. For COc1ccc2nccc([C@@H](O)CN3CCC(NCCOc4ccc(F)cc4F)CC3)c2c1, the XC50 was 141 nM. In the case of O=C(N[C@@H](Cc1ccccc1)C(=O)NC1CCCc2ccccc21)c1ccc(O)c(-c2cccc(C(F)(F)F)c2)c1 (some centres undefined), the XC50 is reported as 1000 nM. Molecule C=C[C@H]1CN2CC[C@H]1C[C@H]2[C@H](O)c1cc(/C=C/c2ccc(F)cc2)nc2ccc(OC)cc12 has an XC50 of 34.2 nM. N=C(N)Nc1nc(-c2cccc(NCCCCCCCCON3C(N)=NC(N)=NC34CCCCC4)c2)cs1 gave an XC50 of 226 nM. In the case of O=C(NCc1cccc(C(F)(F)F)c1)[C@@H]1CCCN1C(=O)c1ccc(O)c(-c2ccc(Cl)c(Cl)c2)c1, the XC50 is reported as 787 nM. With O=C(Nc1cccc(OC2CCN(Cc3ccccc3)CC2)c1)c1ccc(Cl)c(Cl)c1 the XC50 was 716 nM. CCOc1ccc2[nH]c(C)cc(=NN=Cc3ccccc3Cl)c2c1 showed an XC50 of 191 nM. For COc1c(C2CCN(CCCCNC(=O)c3cc(-c4ccc(Cl)cc4)sc3C)CC2)ccc2c1CCCC2, the XC50 was 629 nM. For Cc1cccc(-c2cccc(CNc3nc(NCCc4ccc(O)cc4)nc(N4CCNCC4)n3)c2)c1, the XC50 was 1190 nM. Molecule O=C(/C=C/c1ccc(Cl)c(Cl)c1)NCCCCCN1CCCN(C(=O)Nc2cccc(C(F)(F)F)c2)CC1 has an XC50 of 866 nM. For CCCCCC(C)C(C)c1cc(O)c2c(c1)OC(C)(C)C=C2c1cc[n+]([O-])cc1 (centres undefined), the XC50 was 1190 nM. In the case of CC(C)COc1ccc(Cl)cc1Cc1ccc(-c2nc3ccc(Br)cc3[nH]2)o1, the XC50 is reported as 1400 nM. CS(=O)(=O)c1ccc(CCNCc2ccc(-c3ccc(CNC4CCN(Cc5ccccc5)CC4)cc3)nc2)cc1 was tested, and the XC50 was 249 nM. For CCNc1cc(C(=O)N[C@@H](Cc2ccco2)[C@H](O)CNC2CCCCC2)cc(N2CCCCS2(=O)=O)c1, the XC50 was 1010 nM. Molecule COc1ccc2nccc([C@@H](O)CN3CCC(NCc4cc5cc(OC(F)(F)F)ccc5[nH]4)CC3)c2c1 has an XC50 of 127 nM. CCNC(=O)Nc1ccc(-c2cnc(N)c(-c3nc4ccc(OC)cc4[nH]3)c2)cc1 gave an XC50 of 499 nM. In the case of Cc1ccccc1C1CCN(C2CCC(NC(=O)/C=C/c3cccc(F)c3F)CC2)CC1 (centres undefined), the XC50 is reported as 1150 nM. OCCCCCCNc1ccnc2[nH]c3ccc(I)cc3c12 showed an XC50 of 1070 nM. Cc1cc(=O)c2cc(Oc3ccc(OC(F)(F)F)cc3)ccc2[nH]1 gave an XC50 of 990 nM. For Cc1ccccc1C(=O)NC(NC(=S)Nc1ccc([N+](=O)[O-])cc1)C(Cl)(Cl)Cl (centres undefined), the XC50 was 745 nM. With O=C(Nc1ccc2c(c1)CCC2)c1ccc(N2CCN(c3ccncc3)CC2)cc1 the XC50 was 1130 nM. In the case of CCOc1c(Cl)cc(Cl)cc1CNCCCNc1nc2ccccc2[nH]1, the XC50 is reported as 831 nM. With CC(Oc1c(C2CCN(CCCCNC(=O)c3ccc(-c4ccc(C#N)cc4)cc3)CC2)ccc2c1CCCC2)C(N)=O (centres undefined) the XC50 was 678 nM. c1cc(CNc2ncc(-c3ccsc3)c(-c3nccs3)n2)ccn1 was tested, and the XC50 was 358 nM. CCOc1cc(CC)ccc1C1CCN(CCCCNC(=O)c2ccc(NC(=O)c3ccc(Cl)cc3)cc2)CC1 showed an XC50 of 743 nM. Cc1cc(Nc2ccc(C)c(Cl)c2)n2nc(C(F)(F)F)nc2n1 showed an XC50 of 15.8 nM. With Cc1cc2ccccc2c(CON2C(=N)N=C(N)NC2(C)C)c1C the XC50 was 9.5 nM. For COc1ccc(CC(=O)NC(CCCN2CCC3(CC2)OCc2ccccc23)c2ccc(Cl)c(Cl)c2)cc1 (centres undefined), the XC50 was 1130 nM. O=C(Nc1ccc(Br)cc1)c1cc(Br)ccc1NS(=O)(=O)c1ccc(C(F)(F)F)cc1 showed an XC50 of 180 nM. For CN(C)CCN1CCN(CCCN2c3ccccc3Sc3ccc(C(F)(F)F)cc32)CC1, the XC50 was 762 nM. In the case of O=C(Nc1ccc(S(=O)(=O)N2CCCCCC2)cc1)c1cc(-c2ccccc2O)n[nH]1, the XC50 is reported as 717 nM. COc1ccc(-n2nc(C(=O)NCc3ccccc3OC)c3ccccc3c2=O)cc1 showed an XC50 of 217 nM. CCC1N=C(N)N=C(N)N1OCCCOc1c(Cl)cc(Cl)cc1Cl (centres undefined) was tested, and the XC50 was 3.2 nM. In the case of CC1(C)[C@H]2CC[C@@H](CNc3nc(NCCc4c[nH]cn4)nc(NCc4cc(F)ccc4F)n3)[C@@H]1C2, the XC50 is reported as 311 nM. COc1ccc(NC(=O)[C@H](Cc2ccccc2)Nc2cc(C)nc(NCCc3ccccc3)n2)cc1 showed an XC50 of 1240 nM. Molecule CCCCN(C(=O)c1ccccc1Cl)c1nnc(-c2ccccc2C)s1 has an XC50 of 1020 nM. O=c1cc(NCCCNCc2[nH]c3cc(Cl)cc(Cl)c3c2Cn2cccn2)[nH]c2ccccc12 showed an XC50 of 972 nM. OC1CCCN(Cc2ccc(-c3ccc(-c4nc5cc(F)ccc5[nH]4)s3)cc2)C1 (centres undefined) was tested, and the XC50 was 851 nM. In the case of O=C(Nc1ccc2c(c1)CCN2C1CCN(Cc2ccc(C(F)(F)F)cc2F)C1)c1ccco1 (centres undefined), the XC50 is reported as 510 nM. CC(C)Cn1cc(C2CCN(CCN3CCC(CNC(=O)c4ccc(-c5ccc(C(F)(F)F)cc5)cc4)CC3)CC2)c2ccccc21 gave an XC50 of 753 nM. Work on CCOc1ccccc1CCNC(C)Cc1ccc(C(=O)Nc2ccc(CC(C)NCCc3cccc(Cl)c3)cc2)cc1 (centres undefined) yielded an XC50 of 539 nM. COc1ccc(-c2ccc(S(=O)(=O)Nc3cc4c(cc3OC(C)C)CCN(C)CC4)cc2)cc1 was tested, and the XC50 was 686 nM. COc1ccc(-c2cccc(NC(=O)c3ccc(C#N)cc3)c2)cc1CN(C)CCN(C)C gave an XC50 of 74.7 nM. With O=C(c1c(-c2[nH]c3ccccc3c2C(=O)C(F)(F)F)[nH]c2ccccc12)C(F)(F)F the XC50 was 746 nM. In the case of CCN(CCS(C)(=O)=O)Cc1ccc(-c2ccc3ncnc(Nc4ccc(OCc5cccc(F)c5)c(Cl)c4)c3c2)o1, the XC50 is reported as 608 nM. Work on c1nc2nc3c(c(Nc4ccc5c(c4)CCC5)n2n1)CCC3 yielded an XC50 of 917 nM. CC(CO)(CO)NCc1cc2c3ccccc3c(CNC(C)(CO)CO)cc2c2ccccc12 was tested, and the XC50 was 723 nM. Work on Oc1ccc(CCNc2nc(N/N=C/C=C/c3ccc(Cl)cc3)nc(N3CCNCC3)n2)cc1 yielded an XC50 of 779 nM. For Cc1cc(-c2cccc3c(C(=O)N4CCc5cc6nccc(N7CCCN(C)CC7)c6cc54)cccc23)cc(C)n1, the XC50 was 437 nM. With CCN(CCCN1CCCCC1)c1cc(C)nc(Nc2ccc(C(F)(F)F)cc2)n1 the XC50 was 374 nM. COc1ccc(NC(=O)c2ccc3[nH]c(-c4ccc(Cl)cc4)cc3c2)cc1OCCN(C)C was tested, and the XC50 was 813 nM. Work on CC(C)Cn1c2ccccc2c2nc3nc(N)nc(N)c3nc21 yielded an XC50 of 725 nM. Cc1cc(-c2ccc(NC(=O)N3CCc4cc(Br)c(N5CCN(C)CC5)cc43)cc2)ccc1C#N showed an XC50 of 883 nM. Work on CN1CCN(c2cc(-c3ccncc3)nc(-c3cccnc3)n2)CC1 yielded an XC50 of 809 nM. With COc1ccc2nc(Nc3nc(-c4ccccn4)cs3)sc2c1 the XC50 was 1120 nM. Cc1cc(=NN=Cc2ccccc2Cl)c2cc(F)ccc2[nH]1 was tested, and the XC50 was 750 nM. CCCCNC(=O)[C@H](Cc1ccccc1)NC(=O)c1ccc(O)c(-c2ccc(Cl)c(Cl)c2)c1 showed an XC50 of 527 nM. With COc1ccc(C(=O)C2CC2CN2CC=C(c3c[nH]c4cccc(Br)c34)CC2)cc1 (centres undefined) the XC50 was 935 nM. With COc1ccccc1-c1cc(C(=O)N2CCN(S(=O)(=O)c3ccc(C)cc3)CC2)[nH]n1 the XC50 was 1160 nM. Cc1cc(OCCCN2CCCCC2)ccc1NC(=O)COc1ccc(Cl)cc1C(=O)c1cc(Cl)cc(C#N)c1 showed an XC50 of 892 nM. Molecule COCCNCc1ccc(-c2cccc(CNc3ccc(OC)cc3)c2)cc1 has an XC50 of 1040 nM. For CCCCCN1CCCC1CNS(=O)(=O)c1cccc(C(=O)Nc2cccc(C#N)c2)c1 (centres undefined), the XC50 was 978 nM. CCC[C@@H]([C@@H](CC(C)C)C(=O)N[C@@H](CCCCNC(=O)c1ccccn1)C(=O)Nc1nccs1)N(O)C=O gave an XC50 of 46.6 nM. For COc1ccc(CNc2nccc3ccc(-c4ccc5nccn5c4)cc23)cc1, the XC50 was 882 nM. Work on COc1ccc(C(=O)NC2CCN(c3ccnc4cc(Cl)ccc34)C2)cc1 (centres undefined) yielded an XC50 of 231 nM. Cc1cccc2nc(-c3ccc(-c4cccc(NC(=O)C(C)CN(C)C)c4)s3)[nH]c12 (centres undefined) was tested, and the XC50 was 724 nM. COc1ccc(-c2cccc(NC(=O)c3cccc(C#N)c3)c2)cc1CN(C)CCO showed an XC50 of 823 nM. CCOc1ccccc1C(=O)Nc1cccc(-c2nc3ncccn3c2C)c1 was tested, and the XC50 was 846 nM. For O=C(CN1CCN(S(=O)(=O)C=Cc2ccccc2)CC1)Nc1cc(C(F)(F)F)ccc1Cl, the XC50 was 776 nM. In the case of CNCCNCc1cccc(-c2ccc(-c3nc4cc(C(F)(F)F)ccc4[nH]3)cc2)c1, the XC50 is reported as 693 nM. For CC1CCC(C[C@@H](C(=O)N[C@H](C(=O)Nc2nccs2)[C@@H](C)O)[C@H](CCC(F)(F)F)N(O)C=O)CC1 (some centres undefined), the XC50 was 535 nM. For Cc1cc(N[C@@H](CC(C)C)C(=O)NC2CCCC2)nc(NCCc2ccc(F)cc2)n1, the XC50 was 794 nM. In the case of O=C(Nc1ccc(Cl)cc1)Nc1ccc(-c2cccc(-c3nc4ccccc4[nH]3)c2)cc1, the XC50 is reported as 157 nM. In the case of O=C(Nc1ccc(N2CCCCC2)c(Cl)c1)c1ccco1, the XC50 is reported as 409 nM. Cc1noc(C)c1C(=O)N1CCc2cc3nccc(N4CCN5CCC[C@H]5C4)c3cc21 was tested, and the XC50 was 874 nM. With CCCCC(NCC)c1ccc(OCCOc2ccc(C(CCCC)NCC)cc2)cc1 (centres undefined) the XC50 was 930 nM. NCC1(c2nc(-c3ccc(Cl)c(O)c3)c(-c3ccncc3)[nH]2)CCCCC1 was tested, and the XC50 was 744 nM.

— ChEMBL document CHEMBL1157539, “Thousands of chemical starting points for antimalarial lead identification” (Nature, 2010)
